Assay results from patent US20100203507A1 (PROMETHEUS LABORATORIES, INC, priority 2005, published 2010).

How the values were obtained:
[1] = system: adult rheumatoid arthritis patients naive to MTX; assay: Prospective longitudinal MTX dose escalation study: response (DAS28, EULAR criteria, physician's assessment VAS) (Example 2)
[2] = system: adult rheumatoid arthritis patients naive to MTX; assay: Prospective longitudinal MTX dose escalation study: occurrence of side-effects (Example 2)
Description: The clinical assessment at each study visit consisted of a tender and swollen joint count, a patient's assessment of disease activity (10 cm-VAS), a physician's assessment of disease activity (10 cm-VAS), and a C-Reactive protein (CRP) determination.
The occurrence of side-effects was recorded at the time of each study visit. […] Leukocyte count, hemoglobin, and liver AST were measured on the day of the study visit using standard laboratory methods. […] All data were captured on Case Report Forms using a standardized questionnaire. This consisted of the presence of nausea, dyspepsia, diarrhea, headache, lethargy, stomatitis, alopecia, and pulmonary toxicity (e.g., cough, dyspnea, pulmonary infiltrates). Patients were evaluated by the same physician at the time of each study visit. Toxicities were graded as “mild,” “moderate,” and “severe.” EDTA whole blood was drawn from each patient and shipped overnight from Albany, N.Y. to Prometheus Laboratories in San Diego, Calif.
Toxicities were analyzed using the percentage of 4-6 week periods with side-effects per patient. […] Statistical analyses were performed using the software package SAS (Release 8.2; SAS Institute Inc.; Cary, N.C.).

[3] = visit 6, generalized linear model
[4] = MS 2756A/A vs. MS2756 A/G or G/G
[5] = MTHFR 1298A/C or C/C vs. MTHFR 1298A/A
[6] = MTRR 66G/G vs. MTRR 66A/A or A/G

## CN(Cc1cnc2nc(N)nc(N)c2n1)c1ccc(C(=O)N[C@@H](CCC(=O)O)C(=O)O)cc1 [MTX, methotrexate]
[1]; visit 4, generalized linear model, FIG. 3A
  Estimate, RBC MTXPG formation in responders vs non-responders: 0.034±0.020
[1]; visit 4, median dose 15 mg/week
  Patients with poor response (EULAR), number: 11
[1]; visit 4, n=47
  Median decrease (from baseline) in DAS28: 36%
[1]; visit 4, n=48
  Median decrease (from baseline) in physician's assessment of disease activity VAS: 47%
[1]; visit 6
  Estimate, MTX dose vs percentage change from baseline in DAS28: 0.011±0.051
  Estimate, formation of RBC MTXPGs vs percentage change from baseline in DAS28: −0.003±0.001
  Non-responders: 9%
  Responders with moderate response, number: 10
  Responders, number of patients: 31
[1]; visit 6 (baseline 5.1)
  DAS28, median: 3.1
[1]; visit 6 (baseline 5.6)
  Physician's assessment of disease activity 10 cm VAS, median: 2.1
[1]; [3]
  Estimate, RBC MTXPG levels vs percentage change from baseline in physician's assessment of disease activity: −0.0077±0.025
  Estimate, weekly MTX dose vs percentage change from baseline in physician's assessment of disease activity: 0.029±0.012
[1]; visit 6, median dose 17.5 mg weekly
  Non-responders, number of patients: three
[1]; visit 6, n=34
  Median decrease (from baseline) in DAS28: 41%
[1]; visit 6, n=35
  Median decrease (from baseline) in physician's assessment of disease activity VAS: 52%
[1]; visit 6, of the responders
  Responders with moderate response: 32%
[2]; 2 severe lethargy, 2 severe dyspepsia
  Patients who experienced a severe side-effect in one of the study visits, number: 4
[2]; 48 patients
  Signs of hematological toxicity: None of the patients
[2]; 48 patients, 4 to 6 visits
  AST >40 U/L: median of percentage of study visits with side-effect per patient: 0%
  All side-effects: median of percentage of study visits with side-effect per patient: 50%
  Alopecia: median of percentage of study visits with side-effect per patient: 0%
  Alopecia: number of patients (% total) with at least one study visit with side-effect: 4 (8%)
  Central nervous system: median of percentage of study visits with side-effect per patient: 25%
  Central nervous system: number of patients (% total) with at least one study visit with side-effect: 30 (63%)
  Cough: median of percentage of study visits with side-effect per patient: 0%
  Cough: number of patients (% total) with at least one study visit with side-effect: 12 (25%)
  Dyspnea: median of percentage of study visits with side-effect per patient: 0%
  Dyspnea: number of patients (% total) with at least one study visit with side-effect: 1 (2.1%)
  Gastrointestinal tract: median of percentage of study visits with side-effect per patient: 25%
  Gastrointestinal tract: number of patients (% total) with at least one study visit with side-effect: 33 (69%)
  Headache: median of percentage of study visits with side-effect per patient: 0%
  Headache: number of patients (% total) with at least one study visit with side-effect: 14 (29%)
  Lethargy: median of percentage of study visits with side-effect per patient: 17%
  Lethargy: number of patients (% total) with at least one study visit with side-effect: 27 (56%)
  diarrhea: median of percentage of study visits with side-effect per patient: 0%
  diarrhea: number of patients (% total) with at least one study visit with side-effect: 15 (31%)
  dyspepsia: median of percentage of study visits with side-effect per patient: 0%
  dyspepsia: number of patients (% total) with at least one study visit with side-effect: 16 (33%)
  nausea: median of percentage of study visits with side-effect per patient: 0%
  nausea: number of patients (% total) with at least one study visit with side-effect: 22 (46%)
  stomatitis: median of percentage of study visits with side-effect per patient: 0%
  stomatitis: number of patients (% total) with at least one study visit with side-effect: 5 (10%)
[2]; [4]
  Estimate, percentage of 4 week periods with all side-effects: 0.20 ± 0.09
  Estimate, percentage of 4 week periods with central nervous system side-effects: 0.11 ± 0.09
  Estimate, percentage of 4 week periods with gastrointestinal side-effects: 0.29 ± 0.08
[2]; [5]
  Estimate, percentage of 4 week periods with all side-effects: 0.18 ± 0.10
  Estimate, percentage of 4 week periods with central nervous system side-effects: 0.21 ± 0.10
  Estimate, percentage of 4 week periods with gastrointestinal side-effects: 0.25 ± 0.09
[2]; [6]
  Estimate, percentage of 4 week periods with all side-effects: 0.22 ± 0.10
  Estimate, percentage of 4 week periods with central nervous system side-effects: 0.16 ± 0.09
  Estimate, percentage of 4 week periods with gastrointestinal side-effects: 0.28 ± 0.09
[2]; baseline to visit 4
  Increase in MCV above 120 fl: none of the patients
[2]; both at the fourth visit
  Patients requiring MTX dosage interruption, number: Two
[2]; generalized linear model
  Estimate, MTX dose administered vs occurrence of central nervous system side-effects: 0.186
[2]; visit 4
  Median increase in MCV from baseline: 3.5%
[2]; visit 4 (baseline 89 fl)
  Erythrocyte mean corpuscular volume (MCV), median: 93 fL
[2]; visit 6
  MCV of the only one patient above 120 fl: 124 fL
  Median increase in MCV: 3.7%
